How the values were obtained:
SARS-CoV-2 = experiment: Pulmonary inflammation after SARS-CoV-2 challenge in MRL-Fas lpr mice; type: in vivo; details: 40 mg/kg/day intraperitoneal from around day 15 after viral clearance, lungs inspected at day 40 post infection
tlr7 gene expression = details: SLE-patients; cited from earlier work
COVID-19 = details: severely ill COVID-19 patients; cited from earlier work
[1] = test system: lethal respiratory virus infections; details: aged mice, intranasal treatment; cited from earlier work
SARS-CoV-1 = test system: SARS-CoV-1; set-up: species or system mice; details: mouse, in vivo
classical swine fever = test system: classical swine fever; set-up: species or system pigs; details: pig, in vivo, 0.1 mg/kg

## CCN(CCO)CCCC(C)Nc1ccnc2cc(Cl)ccc12 (stereo not shown) [hydroxychloroquine]
SARS-CoV-2
  severity of pulmonary inflammation (score 0-4): improved

## C=C1CC[C@H](O)C/C1=C/C=C1\CCC[C@]2(C)[C@@H]([C@H](C)CCCC(C)C)CC[C@@H]12 [vitamin D3]
tlr7 gene expression
  tlr7 gene expression: down-regulating tlr7 gene expression
COVID-19
  protection from thrombosis and embolism: protect severely ill COVID-19 patients from thrombosis and embolism

## Polyinosinic:polycytidylic acid [poly(IC)]
[1]
  protection from lethal respiratory virus infections: protects aged mice from lethal respiratory virus infections
SARS-CoV-1
  protection compared with the other tlr agonists: most protective
  survival: increase survival
Classical swine fever
  infection fatality rate: lower than the infection fatality rate of the untreated subpopulation

— patent US20230338395A1, “PROPHYLAXIS AND TREATMENT OF CORONAVIRUS INFECTION” (priority 2020, published 2023)
